According to patent US20150224066A1 (priority 2012, published 2015):
Values joined by “and” are separate entries in the source; they are usually repeats but may differ in a detail not shown here. Identical values can stand only once. “Also recorded” adds a separate entry of the source. Like-named read-outs stand apart in the source and are kept apart here.

Legend:
S. aureus MN8 [1] = assay type: cell-based, Staphylococcus aureus
B. anthracis Sterne = assay type: cell-based, Bacillus anthracis; conditions: for antimicrobial activity / growth inhibition: 24 h incubation; for bactericidal concentration / bacteriostatic concentration: 24 h
[2] = tested on: Streptococcus pyogenes MNWA; assay type: cell-based
[3] = tested on: Streptococcus agalactiae MNSI; assay type: cell-based
[4] = tested on: TSST-1 production by S. aureus MN8; assay type: cell-based, Staphylococcus aureus
[5] = tested on: TSST-1 production by S. aureus CDC587; assay type: cell-based, Staphylococcus aureus
[6] = tested on: TSST-1 production by S. aureus MNPE; assay type: cell-based, Staphylococcus aureus
S. aureus MN8 [7] = assay type: cell-based, Staphylococcus aureus; remark: listed apart in the source
S. aureus CDC587 = assay type: cell-based, Staphylococcus aureus
S. aureus MNPE = assay type: cell-based, Staphylococcus aureus
S. aureus MN8 [8] = assay type: cell-based, Staphylococcus aureus; remark: listed apart in the source
S. aureus = assay type: cell-based, Staphylococcus aureus

CC1=C(C/C=C(\C)CCC[C@H](C)CCC[C@H](C)CCCC(C)C)C(=O)c2ccccc2C1=O [phylloquinone, reference compound]
antimicrobial activity / growth inhibition (S. aureus MN8 [1]): no antimicrobial activity | antimicrobial activity / growth inhibition (B. anthracis Sterne): no antimicrobial activity | antimicrobial activity / growth inhibition [2]: no antimicrobial activity | antimicrobial activity / growth inhibition [3]: no antimicrobial activity | inhibition of TSST-1 production [4]: did not inhibit | inhibition of TSST-1 production [5]: did not inhibit | inhibition of TSST-1 production [6]: did not inhibit

O=C1C=CC(=O)c2ccccc21 [1,4-naphthoquinone]
antimicrobial activity / growth inhibition (S. aureus MN8 [1]): strong antimicrobial activity | fold less active than menadione (S. aureus MN8 [1]): approximately 2 fold | fold less active than menadione (B. anthracis Sterne): approximately 2 fold | antimicrobial activity / growth inhibition (B. anthracis Sterne): strong antimicrobial activity | antimicrobial activity / growth inhibition [2]: strong antimicrobial activity | fold less active than menadione [2]: approximately 2 fold | antimicrobial activity / growth inhibition [3]: strong antimicrobial activity | fold less active than menadione [3]: approximately 2 fold

COC1=C(OC)C(=O)C(C/C=C(\C)CCC=C(C)C)=C(C)C1=O [coenzyme Q2]
bactericidal concentration (≧3 log drop in CFUs/ml) (S. aureus MN8 [1]): 50 μg/ml | bacteriostatic concentration (<3 log drop in CFUs/ml) (S. aureus MN8 [1]): 25 μg/ml | bactericidal concentration (B. anthracis Sterne): ≥ 25 µg/mL | bacteriostatic concentration (B. anthracis Sterne): 12.5 µg/mL

COC1=C(OC)C(=O)C(C/C=C(\C)CC/C=C(\C)CCC=C(C)C)=C(C)C1=O [coenzyme Q3]
bactericidal concentration (≧3 log drop in CFUs/ml) (S. aureus MN8 [1]): 50 μg/ml | bacteriostatic concentration (<3 log drop in CFUs/ml) (S. aureus MN8 [1]): 25 μg/ml | bactericidal concentration (B. anthracis Sterne): 50 µg/mL | bacteriostatic concentration (B. anthracis Sterne): 25 µg/mL

COC1=C(OC)C(=O)C(C/C=C(\C)CC/C=C(\C)CC/C=C(\C)CC/C=C(\C)CC/C=C(\C)CC/C=C(\C)CC/C=C(\C)CC/C=C(\C)CC/C=C(\C)CCC=C(C)C)=C(C)C1=O [coenzyme Q10, reference compound]
antimicrobial activity / growth inhibition (S. aureus MN8 [1]): no antimicrobial activity | antimicrobial activity / growth inhibition (B. anthracis Sterne): no antimicrobial activity | antimicrobial activity / growth inhibition [2]: lacked antimicrobial activity | antimicrobial activity / growth inhibition [3]: lacked antimicrobial activity | inhibition of TSST-1 production [4]: did not inhibit | inhibition of TSST-1 production [5]: did not inhibit | inhibition of TSST-1 production [6]: did not inhibit

CCCCCCCCCCCC(=O)OCC(O)CO (stereo not drawn) [GML, glycerol monolaurate]
growth inhibition of S. aureus MN8 (S. aureus MN8 [7]): did not inhibit; also recorded: not inhibitory

CC1=CC(=O)c2ccccc2C1=O [menadione]
antimicrobial activity / growth inhibition (S. aureus MN8 [1]): inhibits the growth; also recorded: strong antimicrobial activity | antimicrobial activity (S. aureus CDC587): comparably bacteriostatic and bactericidal | antimicrobial activity (S. aureus MNPE): comparably bacteriostatic and bactericidal | bactericidal concentration (B. anthracis Sterne): ≥ 25 µg/mL | bacteriostatic concentration (B. anthracis Sterne): 6.25 µg/mL and 12.5 µg/mL | antimicrobial activity / growth inhibition (B. anthracis Sterne): strong antimicrobial activity | antimicrobial activity / growth inhibition (B. anthracis Sterne; listed as Menadione): inhibits the growth | antimicrobial activity / growth inhibition [2]: inhibits the growth; also recorded: strong antimicrobial activity | bactericidal concentration [2]: 50 µg/mL and 100 µg/mL | bacteriostatic concentration [2]: 25 µg/mL | antimicrobial activity / growth inhibition [3]: inhibits the growth; also recorded: strong antimicrobial activity | bacteriostatic concentration [3]: 6.25 mg/mL and 12.5 mg/mL | concentration at which TSST-1 production was completely inhibited (no detectable TSST-1) [4]: ≥ 3.1 µg/mL | doses that failed to inhibit TSST-1 production [4]: < 3.1 µg/mL | bactericidal concentration (S. aureus MN8 [8]): ≥ 50 µg/mL | concentration of complete killing (S. aureus MN8 [8]): 200 µg/mL | difference in bactericidal concentration, anaerobic versus aerobic (S. aureus MN8 [8]): 4 fold | difference in concentration of complete killing, anaerobic versus aerobic (S. aureus MN8 [8]): 16 fold | growth inhibition when cultured aerobically compared to anaerobically (S. aureus MN8 [8]): more effective | generation of resistant mutants (S. aureus): failed to generate resistant mutants
